In patent publication EP0221719A2, “Novel cephalosporin derivatives, processes for their preparation and pharmaceutical compositions containing them” (BIOGAL GYOGYSZERGYAR, priority 1985, dated 1987):
Values after ≈ are worked out from the molar mass of the structure shown. Counter-ions that a name gives are not always drawn. Like-named read-outs stand apart in the source and are kept apart here.

Experiments:
Escherichia coli K12 = assay: MIC determination (antibacterial activity in vitro); type: cell-based; details: after 24 hours
Escherichia coli 6R = assay: as above; type: cell-based; details: 24 h
[1] = tested on: Escherichia coli poliresistens; assay: as above; type: cell-based; details: 24 h
Escherichia coli R-222 = assay: as above; type: cell-based; details: R222, 24 h
Escherichia coli R-15 = assay: as above; type: cell-based; details: R15, after 24 hours
[2] = tested on: Klebsiella sp. ATCC 10031; assay: as above; type: cell-based; details: ATCC10031, after 24 hours
Proteus vulgaris XL = assay: as above; type: cell-based; details: after 24 hours
[3] = tested on: Pseudomonas pyocyanea NTCT 10.490; assay: as above; type: cell-based; details: Pseudomonas aeruginosa, NTCT10.490, after 24 hours
Description: The MIC values expressed in mcg./mi. of SZMFO 110 after 24 hours are contained in Table 1.

Salmonella typhi murium = assay: as above; type: cell-based; details: Salmonella enterica, 24 h
Shigella sonnei = assay: as above; type: cell-based; details: after 24 hours
[4] = tested on: Bacillus subtilis ATCC 6633; assay: as above; type: cell-based; details: ATCC6633, after 24 hours
[5] = tested on: Staphylococcus aureus 1110; assay: as above; type: cell-based; details: after 24 hours
Staphylococcus aureus 53 = assay: as above; type: cell-based; details: after 24 hours
[6] = tested on: Staphylococcus aureus Smith; assay: as above; type: cell-based; details: after 24 hours
[7] = tested on: Staphylococcus epidermidis A CC I-12228; assay: as above; type: cell-based; details: ACCI12228, after 24 hours
[8] = tested on: Streptococcus haemolyticus Pneumo; assay: as above; type: cell-based; details: after 24 hours
[9] = tested on: Streptococcus haemolyticus A118; assay: as above; type: cell-based; details: after 24 hours
[10] = tested on: Streptococcus haemolyticus Robb; assay: as above; type: cell-based; details: after 24 hours
[11] = tested on: Clostridium perfringens Cp.; assay: microbe, parasite or virus in culture; type: cell-based; details: 24 h
Pseudomonas aeruginosa = assay: microbe, parasite or virus in culture; details: 24 h
[12] = tested on: Salmonella typhi murium and Proteus vulgaris; assay: In vivo effectivity in artificially infected mice (protection test); details: for living animal / group 1st day / living animal / group 3rd day: groups of 5 infected mice; for ED50: sc

Row | Compound | MIC (Pseudomonas aeruginosa) [µg/mL] | living animal / group 1st day ([12]; 0.2 mg./kg. subcutaneously) | living animal / group 3rd day ([12]; 0.2 mg./kg. subcutaneously) | living animal / group 1st day ([12]; 1 mg./kg. subcutaneously) | living animal / group 3rd day ([12]; 1 mg./kg. subcutaneously) | living animal / group 1st day ([12]; 5 mg./kg. subcutaneously) | living animal / group 3rd day ([12]; 5 mg./kg. subcutaneously) | living animal / group 1st day ([12]; 25 mg./kg. subcutaneously) | living animal / group 3rd day ([12]; 25 mg./kg. subcutaneously) | living animal / group 1st day ([12]; 100 mg./kg. subcutaneously) | living animal / group 3rd day ([12]; 100 mg./kg. subcutaneously) | ED50 ([12]; 24 h, read-out: ED50 1st day) [mg/kg] | ED50 ([12]; 72 h, read-out: ED50 3rd day) [mg/kg] | other results
1 | CON=C(C(=O)NC1C(=O)N2C(C(=O)O)=C(CSc3nnc(S)s3)CSC12)c1csc(N)n1 (stereo not drawn) [SZMFO 110, 7β-[2-(2-aminothiazol-4-yl)-(Z)-2-methoxyimino-acetamido]-3-[(2-mercapto-1.3.4-thiadiazol-5-yl)thiomethyl]-ceph-3-em-4-carboxylic acid] | 0.31 (≈ 0.568 µM) | 0 | 0 | 4 | 4 | 5 | 4 | 5 | 5 | 5 | 4 | 0.62 | 0.62 | MIC (Escherichia coli K12): 0.03 µg/mL (≈ 0.055 µM); MIC (Escherichia coli 6R): 0.25 µg/mL (≈ 0.458 µM); MIC [1]: 0.16 µg/mL (≈ 0.293 µM); MIC (Escherichia coli R-222): 0.03 µg/mL (≈ 0.055 µM); MIC (Escherichia coli R-15): 0.16 µg/mL (≈ 0.293 µM); MIC [2]: 0.007 µg/mL (≈ 0.0128 µM); MIC (Proteus vulgaris XL): 0.007 µg/mL (≈ 0.0128 µM); MIC [3]: 0.31 µg/mL (≈ 0.568 µM); MIC (Salmonella typhi murium): 0.06 µg/mL (≈ 0.11 µM); MIC (Shigella sonnei): 0.06 µg/mL (≈ 0.11 µM); MIC [4]: 0.08 µg/mL (≈ 0.147 µM); MIC [5]: 6.2 µg/mL (≈ 11.4 µM); MIC (Staphylococcus aureus 53): 1.6 µg/mL (≈ 2.93 µM); MIC [6]: 1.25 µg/mL (≈ 2.29 µM); MIC [7]: 0.6 µg/mL (≈ 1.1 µM); MIC [8]: 0.03 µg/mL (≈ 0.055 µM); MIC [9]: 0.03 µg/mL (≈ 0.055 µM); MIC [10]: 0.03 µg/mL (≈ 0.055 µM); MIC [11]: 0.004 µg/mL (≈ 0.00733 µM)
2 | CCN1CCN(C(=O)N[C@@H](C(=O)N[C@@H]2C(=O)N3C(C(=O)O)=C(CSc4nnnn4C)CS[C@H]23)c2ccc(O)cc2)C(=O)C1=O [Cefoperazone, 7-[D-(-)-α-(4-ethyl-2,3-dioxo-1-piperazinecarboxamido)-α-(4-hydroxyphenyl)-acetamido]-3-[[(1-methyl-1H-tetranol-5-yl)thio]methyl]-ceph-3-em-4-carboxylic acid, reference compound] | 8 (≈ 12.4 µM) | 1 | 1 | 4 | 1 | 5 | 3 | 4 | 4 | 5 | 4 | 0.44 | 3.7 | 
3 | CO/N=C(\C(=O)N[C@@H]1C(=O)N2C(C(=O)O)=C(CSc3nnnn3C)CS[C@H]12)c1csc(N)n1 [Cefmenoxime, (6R,7R)-7-/2-(2-amino-4-thiazolyl)glyoxylamido/-3-//(1-methyl-1H-tetrazol-5-yl)thio/methyl/-8-oxo-5-thia--1-azabicyclo/4.2.0/oct-2-ene-2-carboxylic acid 7^2-(Z)-(O-methyloxime)] | 64 (≈ 125 µM) |  |  |  |  |  |  |  |  |  |  |  |  | 
4 | CO/N=C(\C(=O)N[C@@H]1C(=O)N2C(C(=O)O)=C(COC(C)=O)CS[C@H]12)c1csc(N)n1 [Cefotaxime, 7-[2-(2-amino-4-thiazolyl)-2-methoxy-iminoacetamido]-cephalosporanic acid] | 32 (≈ 70.3 µM) |  |  |  |  |  |  |  |  |  |  |  |  | 
5 | CO/N=C(\C(=O)N[C@@H]1C(=O)N2C(C(=O)O)=CCS[C@H]12)c1csc(N)n1 [Ceftizoxime, (6R,7R)-7-/2-(2-amino-4-thiazolyl)glyoxylamido/-8--oxo-5-thia-l-azabicyclo/4.2.0/oct-2-ene-2-carboxylic acid 7^2-(Z)-(0-methyloxime)] | 64 (≈ 167 µM) |  |  |  |  |  |  |  |  |  |  |  |  | 
6 | CC(C)(ON=C(C(=O)NC1C(=O)N2C(C(=O)[O-])=C(C[n+]3ccccc3)CSC12)c1csc(N)n1)C(=O)O [Ceftazimide, 1-//(6R,7R)-7-/2-(2-amino-4-thiazolyl)glyoxylamido/--2-carboxy-8-oxo-5-thia-1-azabicyclo/4.2.0/oct-2-ene--3-yl/methyl/pyridinium hydroxide inner salt 7^2-(Z)-/0-(1-carboxy-1-methylethyl)oxime/] | 4 |  |  |  |  |  |  |  |  |  |  |  |  | 
